Assay results from ChEMBL document CHEMBL5143625, “Isolation, synthesis and bioactivity evaluation of isoquinoline alkaloids from Corydalis hendersonii Hemsl. against gastric cancer in vitro and in vivo” (Bioorg Med Chem, 2022).

Columns and labels:
GES1 = experiment: Antiproliferative activity against human GES1 cells assessed as reduction in cell viability after 24 hrs by MTT assay; type: functional, cell-based; settings: GES1, 24 h
HGC-27 = experiment: Antiproliferative activity against human HGC-27 cells assessed as reduction in cell viability after 24 hrs by MTT assay; type: functional, cell-based; settings: HGC-27, 24 h
MGC-803 [1] = experiment: Antiproliferative activity against human MGC-803 cells assessed as reduction in cell viability after 24 hrs by MTT assay; type: functional, cell-based; settings: MGC-803, 24 h
MGC-803 [2] = experiment: Antitumor activity against human MGC-803 cells xenografted in immunodeficient nude mouse assessed as tumor weight at 10 mg/kg, ip administered for 3 weeks (reference value: 157.8 mg); type: functional
[3] = Toxicity in immunodeficient nude mouse xenografted with human MGC-803 cells assessed as reduction in body weight at 10 mg/kg, ip administered for 3 weeks relative to control; type: organism-based; design: scale not given: the % may be the effect or the level left; settings: in vivo, 504 h
MGC-803 [4] = experiment: Antitumor activity against human MGC-803 cells xenografted in immunodeficient nude mouse assessed as tumor volume at 10 mg/kg, ip administered for 3 weeks (reference value: 1039.6 mm3); type: functional

Compound	IC50 (GES1)	IC50 (HGC-27)	IC50 (MGC-803 [1])	Activity (MGC-803 [2])	Activity [3]	Activity (MGC-803 [4])
COc1cc2c(cc1O)[C@@H]1Cc3ccc(OC)c(O)c3CN1CC2 [SCOULERINE]	95.3 µM	6.1 µM	12.6 µM	–	–	–
COc1cc2c(cc1C(=O)c1nccc3cc4c(cc13)OCO4)OCO2	76 µM	9.3 µM	7.8 µM	–	–	–
COc1cc2c(cc1O)C1Cc3ccc4c(c3CN1CC2)OCO4 (stereo not drawn) [CHEILANTHIFOLINE]	114 µM	38.3 µM	83.2 µM	–	–	–
CC(=O)c1ccc2c(c1Cn1ccc3cc4c(cc3c1=O)OCO4)OCO2	137 µM	53.8 µM	79.9 µM	–	–	–
COc1ccc2c(c1OC)CN(C)CCc1cc3c(cc1C(=O)C2)OCO3 [ALLOCRYPTOPINE]	> 150 µM	97.8 µM	109 µM	–	–	–
COc1cc(/C=C/C(=O)NCCc2ccc(O)cc2)ccc1O [N-TRANS-FERULOYL TYRAMINE]	> 150 µM	84.5 µM	98.3 µM	–	–	–
O=C1NCCc2cc3c(cc21)OCO3 [NOROXYHYDRASTININE]	> 150 µM	120 µM	> 150 µM	–	–	–
CN1CCc2cc3c(cc2[C@H]1[C@H]1OC(=O)c2c1ccc1c2OCO1)OCO3	> 150 µM	100 µM	> 150 µM	–	–	–
COc1cc2c(cc1OC)C1Cc3ccc4c(c3CN1CC2)OCO4 (stereo not drawn)	> 150 µM	81 µM	94.3 µM	–	–	–
O=c1c2c3c(ccc2cc2n1CCc1cc4c(cc1-2)OCO4)OCO3	> 150 µM	54.6 µM	61.5 µM	–	–	–
CN1CCc2cc3c(cc2C(=O)Cc2ccc4c(c2C1)OCO4)OCO3	> 150 µM	121 µM	94.5 µM	–	–	–
COc1cc2c(cc1Cc1nccc3cc4c(cc13)OCO4)OCO2	> 150 µM	122 µM	> 150 µM	–	–	–
c1cc2c(c3c1CC1c4cc5c(cc4CCN1C3)OCO5)OCO2 (stereo not drawn)	> 150 µM	55.1 µM	107 µM	–	–	–
O=c1[nH]cc(F)c(=O)[nH]1 [FLUOROURACIL]	49.6 µM	45.2 µM	28.6 µM	157.8 mg	14.2%	375.4 mm3
CCOC(=O)c1c(C(=O)c2nccc3cc4c(cc23)OCO4)ccc2c1OCO2	147 µM	66.1 µM	76 µM	–	–	–
